According to ChEMBL document CHEMBL6103548, “Recent advances in screening methods enabling the discovery of novel anti-hepatitis B virus drug candidates” (Eur J Med Chem, 2025):
Values belong to the compound of their own block, whether it stands above or below them.

Assays:
Hepatitis B virus [1] = assay: Antiviral activity against HBV infected in human HepG2-hNTCP cells assessed as inhibition of HBsAg formation; assay type: functional, organism-based
HepG2 [2] = assay: Cytotoxicity against human HepG2 cells assessed as reduction in cell growth; assay type: functional
Hepatitis B virus [3] = assay: Antiviral activity against Hepatitis B virus assessed as inhibition of HbsAg level
Hepatitis B virus [4] = assay: Antiviral activity against Hepatitis B virus assessed as inhibition of HbeAg level
Hepatitis B virus [5] = assay: Antiviral activity against Hepatitis B virus infected in HepDE19 cells assessed as inhibition of viral replication; assay type: functional, organism-based
[6] = Cytotoxicity against human HepDE19 cells; assay type: toxicity, cell-based
HepG2 [7] = assay: Cytotoxicity against human HepG2 cells assessed as reduction in cell viability incubated for 24 hrs by CCK-8 assay; assay type: functional
Hepatitis B virus [8] = assay: Antiviral activity against HBV infected in human HepG2 cells assessed as reduction in viral DNA replication; assay type: functional, organism-based
[9] = Antiviral activity against HBV infected in SRluc-HBc6 cells; assay type: functional, cell-based; settings: Hepatitis B virus
[10] = Cytotoxicity against SRluc-HBc6 cells (unknown origin); assay type: functional
[11] = Cytotoxicity against human HePAD38 cells assessed as reduction in cell viability by XTT assay; assay type: functional
Hepatitis B virus [12] = assay: Antiviral activity against Hepatitis B virus infected in human HePAD38 cells assessed as inhibition of viral DNA replication by qPCR analysis; assay type: functional, organism-based
Hepatitis B virus [13] = assay: Antiviral activity against HBV infected in human HePAD38 cells assessed as reduction in intracellular core HBV DNA replication by Southern blot analysis; assay type: functional, organism-based
[14] = Cytotoxicity against human HePAD38 cells assessed as reduction in cell viability incubated for 72 hrs by MTT assay; assay type: functional
HepG2 [15] = assay: Cytotoxicity against human HepG2 cells by XTT assay; assay type: functional

SMILES: CCCCC1=NC2(CCCC2)C(=O)N1Cc1ccc(-c2ccccc2-c2nnn[nH]2)cc1 [IRBESARTAN]
EC50 (Hepatitis B virus [1]): 35 µM
CC50 (HepG2 [2]): 287 µM

SMILES: C/C=C/C[C@@H](C)[C@@H](O)[C@H]1C(=O)N[C@@H](CC)C(=O)N(C)CC(=O)N(C)[C@@H](CC(C)C)C(=O)N[C@@H](C(C)C)C(=O)N(C)[C@@H](CC(C)C)C(=O)N[C@@H](C)C(=O)N[C@H](C)C(=O)N(C)[C@@H](CC(C)C)C(=O)N(C)[C@@H](CC(C)C)C(=O)N(C)[C@@H](C(C)C)C(=O)N1C [CYCLOSPORINE]
IC50 (Hepatitis B virus [3]): 0.372 µM
IC50 (Hepatitis B virus [4]): 0.311 µM

SMILES: CC(=O)Oc1ccccc1C(=O)Nc1ncc([N+](=O)[O-])s1 [NITAZOXANIDE]
CC50 (HepG2 [7]): 57 µM
EC50 (Hepatitis B virus [8]): < 10 µM

SMILES: O=C(CN(c1cc(C(F)(F)F)ccc1Cl)S(=O)(=O)c1ccccc1)NCc1ccncc1
CC50 [6]: > 50 µM

SMILES: Cc1nc2cc(NC(=O)c3ccc(S(=O)(=O)N(C)Cc4ccccc4)cc3)ccc2s1
CC50 [6]: 2.57 µM

SMILES: CC1=C[C@@H]2C(=O)[C@]3(C=C(C)[C@H](O)[C@@]3(O)[C@@H]1O)[C@H](C)C[C@@H]1[C@H]2C1(C)C
EC50 [9]: 8.9 µM
CC50 [10]: > 100 µM

SMILES: NC(=O)c1ccc(N)nc1 [6-AMINONICOTINAMIDE]
EC50 (Hepatitis B virus [13]): 23.9 µM
CC50 [14]: > 500 µM

SMILES: Cc1cc(C2CCCCC2)n(O)c(=O)c1 [CICLOPIROX]
EC50 (Hepatitis B virus [12]): 0.88 µM
CC50 (HepG2 [15]): > 10 µM

Continued, in another order:

EC50 (Hepatitis B virus [5]): 0.1 µM
SMILES: O=C(O)C1CC(OCCOc2ccc(-c3cc(=O)c4cccc(Cl)c4o3)cc2)C1 (configuration not stated)
CC50 [6]: 0.2 µM

EC50 (Hepatitis B virus [8]): 100 µM
SMILES: O=c1oc2ccccc2c(O)c1Cc1c(O)c2ccccc2oc1=O [DICUMAROL]
CC50 (HepG2 [7]): > 800 µM

EC50 (Hepatitis B virus [12]): 3.6 µM
SMILES: Cc1c(C(=O)Nc2ccccc2)sc(N)c1C(N)=O
CC50 [11]: > 300 µM

EC50 [9]: 2.3 µM
SMILES: CCOC(=O)c1c(CSc2ccccc2)n(C)c2cc(Br)c(O)c(CN(C)C)c12 [UMIFENOVIR]
CC50 [10]: 58.4 µM
